# Test results from DBAASP.
# Where “and” joins values, the source holds several entries; their conditions need not be identical. Equal values may be shown once.
# What was measured:
# Assay in all cases: ≥ marks a high value that may be exact or a test limit, other limits are often not marked, values filed in µg/mL are converted to µM
# Pseudomonas aeruginosa = system: Pseudomonas aeruginosa
# Bacillus pumilus = system: Bacillus pumilus
# [1] = system: Acinetobacter calcoaceticus
# [2] = system: Staphylococcus aureus ATCC 2592
# [3] = system: Escherichia coli ATCC 25922
# [4] = system: Candida albicans ATCC 2002
# Bacillus cereus = system: Bacillus cereus
# Shigella dysenteriae = system: Shigella dysenteriae
# [5] = system: Staphylococcus aureus ATCC 12600
# [6] = system: Pseudomonas aeruginosa ATCC 14502
# [7] = system: Escherichia coli ATCC 11775
# [8] = system: Micrococcus luteus ATCC 49732
# [9] = system: Staphylococcus aureus ATCC 6538
# Escherichia coli SBS 363 = system: Escherichia coli SBS 363
# Escherichia coli JM109 = system: Escherichia coli JM109
# [10] = system: Enterococcus faecium A634
# [11] = system: Staphylococcus aureus 1206
# Bacillus subtilis BR151 = system: Bacillus subtilis BR151
# Streptococcus uberis = system: Streptococcus uberis
# Micrococcus luteus = system: Micrococcus luteus
# [12] = system: Staphylococcus aureus ATCC 25923
# [13] = system: Staphylococcus aureus ATCC 29213
# Pseudomonas haemolytica = system: Pseudomonas haemolytica
# Pasteurella multocida = system: Pasteurella multocida
# [14] = system: Staphylococcus epidermidis
# Listeria innocua = system: Listeria innocua
# Leuconostoc lactis = system: Leuconostoc lactis
# [15] = system: Enterococcus faecium CCARM 5028
# [16] = system: Pseudomonas aeruginosa CCARM 2095
# [17] = system: Enterococcus faecium CCARM 5029
# [18] = system: Bacillus subtilis KCCM 11495
# [19] = system: Pseudomonas aeruginosa CCARM 2092
# [20] = system: Staphylococcus aureus CCARM 3572
# [21] = system: Escherichia coli KCCM 11569
# [22] = system: Mannheimia haemolytica Serovar 6
# [23] = system: Pseudomonas aeruginosa PAO1
# [24] = system: Salmonella enterica subsp. arizonae
# [25] = system: Corynebacterium pseudotuberculosis ATCC 19410
# Staphylococcus aureus = system: Staphylococcus aureus
# Klebsiella pneumoniae = system: Klebsiella pneumoniae
# [26] = system: Mannheimia haemolytica Serovar 1
# Bibersteinia trehalosi = system: Bibersteinia trehalosi
# [27] = system: Mannheimia haemolytica Serovar 2
# Aspergillus fumigatus = system: Aspergillus fumigatus
smiles,measurement,setting,value
CC[C@H](C)[C@H](NC(=O)[C@@H]1CCCN1C(=O)[C@H](Cc1ccccc1)NC(=O)[C@@H](N)Cc1ccccc1)C(=O)N[C@H](C(=O)NCC(=O)N[C@@H](CCCCN)C(=O)N[C@@H](CC(C)C)C(=O)N[C@@H](CC(C)C)C(=O)N[C@@H](CO)C(=O)NCC(=O)N[C@@H](CC(C)C)C(=O)N[C@@H](CC(C)C)C(N)=O)C(C)C [FFPIVGKLLSGLL],MIC,Pseudomonas aeruginosa,3.56 µM
same,MIC,Bacillus pumilus,5.34 µM
same,MIC,[1],≥ 42.7 µM
same,MIC,[2],5.34 µM
same,MIC,[3],5.34 µM
same,MIC,[4],3.56 µM
same,MIC,Bacillus cereus,≥ 53.4 µM
same,MIC,Shigella dysenteriae,14.2 µM
CC[C@H](C)[C@H](NC(=O)[C@H](C)NC(=O)[C@H](CO)NC(=O)[C@@H](NC(=O)[C@H](C)NC(=O)[C@H](CC(N)=O)NC(=O)[C@@H](NC(=O)[C@H](C)NC(=O)[C@H](Cc1cnc[nH]1)NC(=O)[C@@H]1CCCN1C(=O)[C@@H](NC(=O)[C@H](CC(C)C)NC(=O)[C@H](CO)NC(=O)[C@H](CC(C)C)NC(=O)[C@@H](N)Cc1ccccc1)[C@@H](C)CC)[C@@H](C)CC)C(C)C)C(=O)N[C@@H](C)C(=O)N[C@@H](CCCCN)C(=O)N[C@@H](Cc1cnc[nH]1)C(=O)N[C@@H](Cc1ccccc1)C(N)=O [FLSLIPHAINAVSAIAKHF],MIC,[5],3.6 µM
same,MIC,[6],6 µM
same,MIC,[7],7.2 µM
same,MIC,[8],1.8 µM
same,MIC,[9],6 µM
same,MIC,Escherichia coli SBS 363,6 µM
CCC(C)[C@H](NC(=O)CN)C(=O)NCC(=O)N[C@@H](CCCCN)C(=O)N[C@@H](Cc1ccccc1)C(=O)N[C@@H](CC(C)C)C(=O)N[C@@H](Cc1cnc[nH]1)C(=O)N[C@@H](C)C(=O)N[C@@H](C)C(=O)N[C@@H](CCCCN)C(=O)N[C@@H](CCCCN)C(=O)N[C@@H](Cc1ccccc1)C(=O)N[C@@H](C)C(=O)N[C@@H](CCCCN)C(=O)N[C@@H](C)C(=O)N[C@@H](Cc1ccccc1)C(=O)N[C@H](C(=O)N[C@@H](C)C(=O)N[C@@H](CCC(=O)O)C(=O)N[C@H](C(=O)N[C@@H](CCSC)C(=O)N[C@@H](CC(N)=O)C(=O)N[C@@H](CO)C(N)=O)C(C)CC)C(C)C (stereo not given in full) [GIGKFLHAAKKFAKAFVAEIMNS],MIC,Escherichia coli JM109,2.42 µM
same,MIC,[10],20.2 µM
same,MIC,[11],20.2 µM
same,MIC,Bacillus subtilis BR151,1.21 µM
CC[C@H](C)[C@H](NC(=O)[C@@H](NC(=O)[C@@H]1CCCN1C(=O)[C@@H](NC(=O)[C@@H](NC(=O)[C@H](Cc1cnc[nH]1)NC(=O)[C@@H]1CCCN1C(=O)[C@H](CC(C)C)NC(=O)[C@@H](NC(=O)[C@H](Cc1cnc[nH]1)NC(=O)[C@H](CCCCN)NC(=O)[C@H](C)NC(=O)[C@@H](NC(=O)[C@H](C)NC(=O)CNC(=O)[C@H](CC(C)C)NC(=O)[C@@H](NC(=O)[C@H](CO)NC(=O)[C@H](Cc1ccccc1)NC(=O)[C@H](CC(C)C)NC(=O)CN)C(C)C)C(C)C)C(C)C)C(C)C)C(C)C)C(C)C)C(=O)N[C@@H](C)C(=O)N[C@@H](CCC(=O)O)C(=O)N[C@@H](CCCCN)C(=O)N[C@@H](CC(C)C)C(N)=O [GLFSVLGAVAKHVLPHVVPVIAEKL],MIC,Streptococcus uberis,9.64 µM
same,MIC,Micrococcus luteus,9.64 µM
same,MIC,[12],2.31 µM
same,MIC,[13],4.63 µM
same,MIC,Pseudomonas haemolytica,19.3 µM
same,MIC,Pasteurella multocida,9.64 µM
same,MIC,[14],4.63 µM
same,MIC,Listeria innocua,19.3 µM
same,MIC,Leuconostoc lactis,1.16 µM
CC(C)C[C@H](NC(=O)CNC(=O)[C@H](CCCCN)NC(=O)[C@H](CCCCN)NC(=O)[C@H](CC(C)C)NC(=O)[C@H](CC(C)C)NC(=O)[C@H](C)NC(=O)[C@H](CC(N)=O)NC(=O)[C@H](CC(C)C)NC(=O)[C@H](Cc1c[nH]c2ccccc12)NC(=O)[C@@H](N)CCCCN)C(=O)N[C@@H](CC(N)=O)C(=O)N[C@@H](CS)C(=O)N[C@@H](C)C(=O)N[C@@H](CCCCN)C(=O)NCC(=O)N[C@H](C(=O)N[C@@H](CC(C)C)C(=O)N[C@@H](C)C(N)=O)C(C)C [KWLNALLKKGLNCAKGVLA],MIC,[15],0.693 µM and 1.39 µM
same,MIC,[16],2.77 µM
same,MIC,[17],0.693 µM and 1.39 µM
same,MIC,[18],0.49 µM
same,MIC,[19],1.39 µM
same,MIC,[20],5.54 µM
same,MIC,[21],1.39 µM
CC[C@H](C)[C@H](NC(=O)[C@H](CCCN=C(N)N)NC(=O)[C@H](CCCN=C(N)N)NC(=O)[C@@H](NC(=O)[C@@H](N)CC(N)=O)[C@@H](C)CC)C(=O)N[C@H](C(=O)N[C@@H](CCCN=C(N)N)C(=O)N[C@@H](CCCCN)C(=O)N[C@H](C(=O)N[C@H](C(=O)N[C@@H](Cc1cnc[nH]1)C(=O)N[C@H](C(=O)N[C@H](C(=O)N[C@@H](CCCCN)C(=O)N[C@@H](CCCCN)C(=O)N[C@@H](Cc1ccc(O)cc1)C(=O)O)[C@@H](C)CC)[C@@H](C)CC)[C@@H](C)CC)[C@@H](C)CC)[C@@H](C)CC [NIRRIIRKIIHIIKKY],MIC,[22],1.59 µM
same,MIC,[23],2.02 µM
same,MIC,[24],2.41 µM
same,MIC,[25],9.63 µM
same,MIC,Pasteurella multocida,0.626 µM
same,MIC,Staphylococcus aureus,4.81 µM
same,MIC,Klebsiella pneumoniae,0.818 µM
same,MIC,[26],0.722 µM
same,MIC,Bibersteinia trehalosi,3.61 µM
same,MIC,[27],1.59 µM
same,MIC,Aspergillus fumigatus,4 µM
